# Assay results: US20090275583A1, “ANTIVIRAL COMPOUNDS AND USE THEREOF” (Myriad Genetics, Incorporated, priority 2006, published 2009)
# pEC50, pIC50: −log10 of the molar value. Where two headings read alike, the source gives them in different places.
# What was measured:
# [1] = tested on: HIV-1 laboratory strain, NL4-3; assay: MT-4 cytoprotection assay; type: cell-based
# In short: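 MT-4 cells mock- or batch-infected with NL4-3 (MOI 0.0005) for 2 h, washed, then cultured 4 days with increasing compound concentrations. Viability read by WST-1 tetrazolium reduction: cytoprotection in infected cells, toxicity in mock-infected cells.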
# HIV-1NL4-3 = assay: P4-MAGI assay; type: cell-based
# In short: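 HeLa-derived CD4+ P4 cells carrying an LTR-driven lacZ were infected with HIV-1NL4-3 at MOI 1 with DEAE-Dextran, then compound added in increasing concentrations right after virus; infection reported as Tat-induced β-galactosidase. TC50 measured by WST-1 in mock-infected cells.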
# [2] = Human immunodeficiency virus 1, NL43, MT4, 96 h, MT-4 cells, four days incubation, WST-1 readout, read-out: MT4 EC50
# [3] = Human immunodeficiency virus 1, NL43, less than about 100 nm, read-out: MT-4 assay EC50 (concentration of compound that reduces the virus induced cytopathic effect by 50%)
# [4] = Human immunodeficiency virus 1, 24 h, P4 cells, 24 hour incubation, β-galactosidase expression, read-out: P4-MAGI IC50
# [5] = Human immunodeficiency virus 1, text statement, less than about 100 nm, read-out: P4-MAGI assay IC50
Structure (SMILES),"pEC50 [1, 2]","pEC50 [1, 3]",pIC50 (HIV-1NL4-3; [4]),pIC50 (HIV-1NL4-3; [5])
C=C(C)[C@@H]1CC[C@]2(C(=O)NCc3cc(C(=O)NCc4ccc(C(=O)OC)cc4)ccc3F)CC[C@]3(C)C(CCC4[C@@]5(C)CC[C@H](O)C(C)(C)C5CC[C@]43C)C12 (stereo partly drawn) [Example 100],8.89,> 7.00,7.67,> 7.00
C=C(C)[C@@H]1CC[C@]2(C(=O)NCc3cc(C(=O)NCc4cccc(C(=O)O)c4)ccc3F)CC[C@]3(C)C(CCC4[C@@]5(C)CC[C@H](O)C(C)(C)C5CC[C@]43C)C12 (stereo partly drawn) [Example 101],8.49,> 7.00,7.55,> 7.00
C=C(C)[C@@H]1CC[C@]2(C(=O)NCc3cc(C(=O)NCc4cccc(C(=O)OC)c4)ccc3F)CC[C@]3(C)C(CCC4[C@@]5(C)CC[C@H](O)C(C)(C)C5CC[C@]43C)C12 (stereo partly drawn) [Example 102],9.22,> 7.00,7.66,> 7.00
C=C(C)[C@@H]1CC[C@]2(C(=O)NCc3ccc(F)c(C(=O)NCCc4ccc(C(=O)O)cc4)c3)CC[C@]3(C)C(CCC4[C@@]5(C)CC[C@H](O)C(C)(C)C5CC[C@]43C)C12 (stereo partly drawn) [Example 103],8.14,> 7.00,7.16,> 7.00
C=C(C)[C@@H]1CC[C@]2(C(=O)NCc3ccc(F)c(C(=O)NCCc4cccc(C(=O)O)c4)c3)CC[C@]3(C)C(CCC4[C@@]5(C)CC[C@H](O)C(C)(C)C5CC[C@]43C)C12 (stereo partly drawn) [Example 105],8.07,> 7.00,7.21,> 7.00
C=C(C)[C@@H]1CC[C@]2(C(=O)NCc3ccc(F)c(C(=O)NCc4ccc(C(=O)O)cc4)c3)CC[C@]3(C)C(CCC4[C@@]5(C)CC[C@H](O)C(C)(C)C5CC[C@]43C)C12 (stereo partly drawn) [Example 107],6.89,,6.99,
C=C(C)[C@@H]1CC[C@]2(C(=O)NCc3ccc(F)c(C(=O)NCc4ccc(C(=O)OC)cc4)c3)CC[C@]3(C)C(CCC4[C@@]5(C)CC[C@H](O)C(C)(C)C5CC[C@]43C)C12 (stereo partly drawn) [Example 108],7.00,> 7.00,6.96,
C=C(C)[C@@H]1CC[C@]2(C(=O)NCc3ccc(F)c(C(=O)NCc4cccc(C(=O)O)c4)c3)CC[C@]3(C)C(CCC4[C@@]5(C)CC[C@H](O)C(C)(C)C5CC[C@]43C)C12 (stereo partly drawn) [Example 109],7.30,> 7.00,6.83,
C=C(C)[C@@H]1CC[C@]2(C(=O)NCCc3ccc(O)cc3)CC[C@]3(C)C(CCC4[C@@]5(C)CC[C@H](O)C(C)(C)C5CC[C@]43C)C12 (stereo partly drawn) [Example 111],5.42,,7.14,> 7.00
C=C(C)[C@@H]1CC[C@]2(C(=O)NCc3ccc(OC)c(C(=O)NCCCCC(=O)O)c3)CC[C@]3(C)C(CCC4[C@@]5(C)CC[C@H](O)C(C)(C)C5CC[C@]43C)C12 (stereo partly drawn) [Example 114],6.68,,7.32,> 7.00
C=C(C)[C@@H]1CC[C@]2(C(=O)NCc3cccc(C(=O)NCc4ccc(OCCCC(=O)O)c(C(=O)O)c4)c3)CC[C@]3(C)C(CCC4[C@@]5(C)CC[C@H](O)C(C)(C)C5CC[C@]43C)C12 (stereo partly drawn) [Example 117],6.42,,7.12,> 7.00
C=C(C)[C@@H]1CC[C@]2(C(=O)NCc3cccc(C(=O)NCc4ccc(OCCCn5ccnc5)c(C(=O)OC)c4)c3)CC[C@]3(C)C(CCC4[C@@]5(C)CC[C@H](O)C(C)(C)C5CC[C@]43C)C12 (stereo partly drawn) [Example 121],7.77,,7.67,
C=C(C)[C@@H]1CC[C@]2(C(=O)NCc3cccc(C(=O)NCc4ccc(OCCCN5CCOCC5)c(C(=O)OC)c4)c3)CC[C@]3(C)C(CCC4[C@@]5(C)CC[C@H](O)C(C)(C)C5CC[C@]43C)C12 (stereo partly drawn) [Example 123],7.89,> 7.00,7.72,> 7.00
C=C(C)[C@@H]1CC[C@]2(C(=O)NCc3cccc(C(=O)NCc4ccc(OCCCN5CCOCC5)c(C(=O)O)c4)c3)CC[C@]3(C)C(CCC4[C@@]5(C)CC[C@H](O)C(C)(C)C5CC[C@]43C)C12 (stereo partly drawn) [Example 124],8.10,> 7.00,7.55,> 7.00
C=C(C)[C@@H]1CC[C@]2(C(=O)NCc3cccc(C(=O)NCc4ccc(OCCCO)c(C(=O)O)c4)c3)CC[C@]3(C)C(CCC4[C@@]5(C)CC[C@H](O)C(C)(C)C5CC[C@]43C)C12 (stereo partly drawn) [Example 125],7.25,> 7.00,7.38,> 7.00
C=C(C)[C@@H]1CC[C@]2(C(=O)NCCc3cccc(-c4nc5ccc(C(=O)O)cc5[nH]4)c3)CC[C@]3(C)C(CCC4[C@@]5(C)CC[C@H](O)C(C)(C)C5CC[C@]43C)C12 (stereo partly drawn) [Example 130],6.64,,7.41,
C=C(C)[C@@H]1CC[C@]2(C(=O)NCCc3cccc(C(=O)NCc4ccc(C(=O)N[C@@H](CCC(=O)O)C(=O)O)cc4)c3)CC[C@]3(C)C(CCC4[C@@]5(C)CC[C@H](O)C(C)(C)C5CC[C@]43C)C12 (stereo partly drawn) [Example 133],7.08,> 7.00,7.47,> 7.00
C=C(C)[C@@H]1CC[C@]2(C(=O)NCCc3cccc(C(=O)NCc4ccc(C(=O)N(C)CCN(C)C)cc4)c3)CC[C@]3(C)C(CCC4[C@@]5(C)CC[C@H](O)C(C)(C)C5CC[C@]43C)C12 (stereo partly drawn) [Example 134],6.62,,7.16,> 7.00
C=C(C)[C@@H]1CC[C@]2(C(=O)NCCc3cccc(C(=O)NCc4ccc(C(=O)NCCN(C)C)cc4)c3)CC[C@]3(C)C(CCC4[C@@]5(C)CC[C@H](O)C(C)(C)C5CC[C@]43C)C12 (stereo partly drawn) [Example 135],6.27,,7.15,> 7.00
C=C(C)[C@@H]1CC[C@]2(C(=O)NCCc3cccc(C(=O)NCc4ccc(C(=O)NCCN5CCOCC5)cc4)c3)CC[C@]3(C)C(CCC4[C@@]5(C)CC[C@H](O)C(C)(C)C5CC[C@]43C)C12 (stereo partly drawn) [Example 136],7.85,> 7.00,7.94,> 7.00
C=C(C)[C@@H]1CC[C@]2(C(=O)NCCc3cccc(C(=O)NCc4ccc(C(=O)N(C)CCc5ccccn5)cc4)c3)CC[C@]3(C)C(CCC4[C@@]5(C)CC[C@H](O)C(C)(C)C5CC[C@]43C)C12 (stereo partly drawn) [Example 137],7.98,> 7.00,7.97,> 7.00
C=C(C)[C@@H]1CC[C@]2(C(=O)NCc3cccc(C(=O)NCCCCC(=O)O)c3)CC[C@]3(C)C(CCC4[C@@]5(C)CCC(=O)C(C)(C)C5CC[C@]43C)C12 (stereo partly drawn) [Example 141],5.82,,6.80,
C=C(C)[C@@H]1CC[C@]2(CNCc3cccc(C(=O)NCc4cccc(C(=O)O)c4)c3)CC[C@@]3(C)C(CCC4[C@@]5(C)CC[C@H](O)C(C)(C)C5CC[C@]43C)C12 (stereo partly drawn) [Example 143],5.89,,6.92,
C=C(C)[C@@H]1CC[C@]2(C(=O)NCCc3cccc(C(=O)NC(Cc4ccc(OCC(=O)O)cc4)C(=O)O)c3)CC[C@]3(C)C(CCC4[C@@]5(C)CC[C@H](O)C(C)(C)C5CC[C@]43C)C12 (stereo partly drawn) [Example 146],5.48,,6.71,
C=C(C)[C@@H]1CC[C@]2(C(=O)NCCc3cccc(C(=O)NCCc4ccc(O)cc4)c3)CC[C@]3(C)C(CCC4[C@@]5(C)CC[C@H](O)C(C)(C)C5CC[C@]43C)C12 (stereo partly drawn) [Example 147],7.52,,7.58,
C=C(C)[C@@H]1CC[C@]2(C(=O)NCCc3cccc(C(=O)NCc4ccc(S(=O)(=O)NCCN5CCOCC5)cc4)c3)CC[C@]3(C)C(CCC4[C@@]5(C)CC[C@H](O)C(C)(C)C5CC[C@]43C)[C@@H]12 (stereo partly drawn) [Example 148],7.28,,8.22,
C=C(C)[C@@H]1CC[C@]2(C(=O)NCCc3cccc(C(=O)NCc4ccc(N)cn4)c3)CC[C@]3(C)C(CCC4[C@@]5(C)CC[C@H](O)C(C)(C)C5CC[C@]43C)[C@@H]12 (stereo partly drawn) [Example 149],7.06,,7.64,
C=C(C)[C@@H]1CC[C@]2(C(=O)NCCc3cccc(C(=O)NCc4ccccn4)c3)CC[C@]3(C)C(CCC4[C@@]5(C)CC[C@H](O)C(C)(C)C5CC[C@]43C)C12 (stereo partly drawn) [Example 150],6.91,,7.62,
C=C(C)[C@@H]1CC[C@]2(C(=O)NCCc3cccc(C(=O)NCCc4c[nH]c5ccccc45)c3)CC[C@]3(C)C(CCC4[C@@]5(C)CC[C@H](O)C(C)(C)C5CC[C@]43C)C12 (stereo partly drawn) [Example 151],6.49,,7.07,
